Test results reported in the NIST ThermoML archive (doi:10.1007/s10765-005-5585-3).
Numbers after ± are expanded uncertainties.

Conditions: 101.33 kPa, Liquid; for mass density: UV imaging technique; for viscosity: oscillations around equilibria

[Ir] [iridium]
Conditions | mass density [kg/m3] | viscosity [mPa·s]
2300 K | 19856 ± 400 | –
2350 K | 19814 ± 400 | –
2373 K | – | 8.47 ± 0.85
2398 K | – | 8.34 ± 0.83
2400 K | 19771 ± 400 | –
2423 K | – | 8.21 ± 0.82
2448 K | – | 8.08 ± 0.81
2450 K | 19729 ± 400 | –
2473 K | – | 7.97 ± 0.8
2498 K | – | 7.85 ± 0.79
2500 K | 19686 ± 390 | –
2523 K | – | 7.74 ± 0.77
2548 K | – | 7.63 ± 0.76
2550 K | 19644 ± 390 | –
2573 K | – | 7.53 ± 0.75
2598 K | – | 7.42 ± 0.74
2600 K | 19601 ± 390 | –
2623 K | – | 7.33 ± 0.73
2648 K | – | 7.23 ± 0.72
2650 K | 19559 ± 390 | –
2673 K | – | 7.14 ± 0.71
2698 K | – | 7.05 ± 0.71
2700 K | 19516 ± 390 | –
2723 K | – | 6.97 ± 0.7
2748 K | – | 6.88 ± 0.69
2750 K | 19474 ± 390 | –
2773 K | – | 6.8 ± 0.68
2800 K | 19431 ± 390 | –
2850 K | 19389 ± 390 | –
2900 K | 19346 ± 390 | –
2950 K | 19304 ± 390 | –
3000 K | 19261 ± 380 | –
